Assay results taken from article PMC5622171 (Nature Communications, 2017).

Legend:
Assay in all cases: KINOMEscan kinase profiling
Format in all cases: binding
ABL1-nonphosphorylated = target: T1, ABL1-nonphosphorylated (Homo sapiens, UniProt P00519); conditions: read-out: %Inhibition by 10 μM SPA70
T1 construct: purchased DiscoverX (Ambit Biosciences) KINOMEscan
Experimental: (§1) Kinase inhibition profiling assays. The kinase inhibition profiling assay (KINOMEscan) was performed by Ambit Biosciences, now part of DiscoveryX (Fremont, CA) in accordance with the […]
(§2) published protocol20, 21. […] If the inhibition of a kinase was greater […]
(§3) dilutions) starting from 30 µM.

ACVR2A = target: T2, ACVR2A (Homo sapiens, UniProt P27037); conditions: read-out: %Inhibition by 10 μM SPA70
T2 construct: purchased DiscoverX (Ambit Biosciences) KINOMEscan
Experimental: as §1, §2, §3

AKT2 = target: T3, AKT2 (Homo sapiens, UniProt P31751); conditions: read-out: %Inhibition by 10 μM SPA70
T3 construct: purchased DiscoverX (Ambit Biosciences) KINOMEscan
T3 sequence (P31751 whole entry): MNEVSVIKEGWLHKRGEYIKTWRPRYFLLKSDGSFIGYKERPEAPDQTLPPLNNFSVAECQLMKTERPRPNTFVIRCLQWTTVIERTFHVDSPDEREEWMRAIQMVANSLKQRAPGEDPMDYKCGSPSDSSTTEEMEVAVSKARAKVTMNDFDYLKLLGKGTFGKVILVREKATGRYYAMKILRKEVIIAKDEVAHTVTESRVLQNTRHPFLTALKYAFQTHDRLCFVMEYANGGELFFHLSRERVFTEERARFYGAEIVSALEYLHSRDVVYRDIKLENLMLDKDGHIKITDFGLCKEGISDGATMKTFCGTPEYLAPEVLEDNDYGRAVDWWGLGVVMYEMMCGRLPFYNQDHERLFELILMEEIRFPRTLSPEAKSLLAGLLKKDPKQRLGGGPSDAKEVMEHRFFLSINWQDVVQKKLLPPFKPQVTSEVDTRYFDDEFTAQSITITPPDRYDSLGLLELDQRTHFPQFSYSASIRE
Experimental: as §1, §2, §3

AXL = target: T4, AXL (Homo sapiens, UniProt P30530); conditions: read-out: %Inhibition by 10 μM SPA70
T4 construct: purchased DiscoverX (Ambit Biosciences) KINOMEscan
T4 sequence (P30530 26-894): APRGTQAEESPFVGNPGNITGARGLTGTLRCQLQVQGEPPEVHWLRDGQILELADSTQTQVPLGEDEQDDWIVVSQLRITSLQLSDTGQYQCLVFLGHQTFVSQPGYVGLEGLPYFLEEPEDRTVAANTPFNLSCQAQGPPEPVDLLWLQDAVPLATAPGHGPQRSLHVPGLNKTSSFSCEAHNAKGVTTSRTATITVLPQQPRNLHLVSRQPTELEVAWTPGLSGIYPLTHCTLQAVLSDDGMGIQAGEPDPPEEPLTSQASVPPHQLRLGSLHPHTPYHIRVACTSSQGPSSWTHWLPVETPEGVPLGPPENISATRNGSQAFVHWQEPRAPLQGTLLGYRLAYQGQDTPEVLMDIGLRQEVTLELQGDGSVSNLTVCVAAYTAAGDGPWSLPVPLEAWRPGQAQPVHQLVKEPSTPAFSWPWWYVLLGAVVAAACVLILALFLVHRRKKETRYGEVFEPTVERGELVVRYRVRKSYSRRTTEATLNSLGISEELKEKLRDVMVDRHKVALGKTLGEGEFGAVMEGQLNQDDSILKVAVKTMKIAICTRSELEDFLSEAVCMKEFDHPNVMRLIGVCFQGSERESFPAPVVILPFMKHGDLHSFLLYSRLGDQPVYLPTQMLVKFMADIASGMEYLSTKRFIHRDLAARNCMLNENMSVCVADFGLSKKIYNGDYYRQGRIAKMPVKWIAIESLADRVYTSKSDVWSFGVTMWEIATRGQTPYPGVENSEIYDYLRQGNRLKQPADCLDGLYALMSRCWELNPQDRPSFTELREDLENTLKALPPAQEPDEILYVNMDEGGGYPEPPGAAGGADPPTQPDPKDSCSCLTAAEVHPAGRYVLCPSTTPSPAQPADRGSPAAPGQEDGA
Experimental: as §1, §2, §3

BMPR1A = target: T5, BMPR1A (Homo sapiens, UniProt P36894); conditions: read-out: %Inhibition by 10 μM SPA70
T5 construct: purchased DiscoverX (Ambit Biosciences) KINOMEscan
Experimental: as §1, §2, §3

BMPR1B = target: T6, BMPR1B (Homo sapiens, UniProt O00238); conditions: read-out: %Inhibition by 10 μM SPA70
T6 construct: purchased DiscoverX (Ambit Biosciences) KINOMEscan
T6 sequence (O00238 14-502): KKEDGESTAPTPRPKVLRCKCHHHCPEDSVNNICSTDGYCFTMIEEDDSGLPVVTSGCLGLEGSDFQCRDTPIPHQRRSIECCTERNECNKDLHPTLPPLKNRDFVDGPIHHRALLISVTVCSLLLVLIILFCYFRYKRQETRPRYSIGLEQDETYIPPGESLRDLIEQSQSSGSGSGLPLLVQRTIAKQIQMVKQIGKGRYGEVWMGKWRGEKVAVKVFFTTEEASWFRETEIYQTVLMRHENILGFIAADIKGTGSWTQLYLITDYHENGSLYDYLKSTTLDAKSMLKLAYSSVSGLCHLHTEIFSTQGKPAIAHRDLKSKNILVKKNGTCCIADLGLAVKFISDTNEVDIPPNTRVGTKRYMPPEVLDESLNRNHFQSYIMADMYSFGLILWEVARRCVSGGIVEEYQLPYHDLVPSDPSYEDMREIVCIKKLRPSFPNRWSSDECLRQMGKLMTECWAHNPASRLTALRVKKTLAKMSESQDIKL
Experimental: as §1, §2, §3

BRSK2 = target: T7, BRSK2 (Homo sapiens, UniProt Q8IWQ3); conditions: read-out: %Inhibition by 10 μM SPA70
T7 construct: purchased DiscoverX (Ambit Biosciences) KINOMEscan
Experimental: as §1, §2, §3

CAMK1G = target: T8, CAMK1G (Homo sapiens, UniProt Q96NX5); conditions: read-out: %Inhibition by 10 μM SPA70
T8 construct: purchased DiscoverX (Ambit Biosciences) KINOMEscan
Experimental: as §1, §2, §3

CLK3 = target: T9, CLK3 (Homo sapiens, UniProt P49761); conditions: read-out: %Inhibition by 10 μM SPA70
T9 construct: purchased DiscoverX (Ambit Biosciences) KINOMEscan
Experimental: as §1, §2, §3

CSNK1E = target: T10, CSNK1E (Homo sapiens, UniProt P49674); conditions: read-out: %Inhibition by 10 μM SPA70
T10 construct: purchased DiscoverX (Ambit Biosciences) KINOMEscan
Experimental: as §1, §2, §3

CSNK1G1 = target: T11, CSNK1G1 (Homo sapiens, UniProt Q9HCP0)
T11 construct: purchased DiscoverX (Ambit Biosciences) KINOMEscan
Experimental: as §1, §2, §3

CTK = target: T12, CTK (Homo sapiens, UniProt P42679); conditions: read-out: %Inhibition by 10 μM SPA70
T12 construct: purchased DiscoverX (Ambit Biosciences) KINOMEscan
Experimental: as §1, §2, §3

DMPK = target: T13, DMPK (Homo sapiens, UniProt Q09013); conditions: read-out: %Inhibition by 10 μM SPA70
T13 construct: purchased DiscoverX (Ambit Biosciences) KINOMEscan
Experimental: as §1, §2, §3

DRAK2 = target: T14, DRAK2 (Homo sapiens, UniProt O94768); conditions: read-out: %Inhibition by 10 μM SPA70
T14 construct: purchased DiscoverX (Ambit Biosciences) KINOMEscan
Experimental: as §1, §2, §3

EPHA3 = target: T15, EPHA3 (Homo sapiens, UniProt P29320); conditions: read-out: %Inhibition by 10 μM SPA70
T15 construct: purchased DiscoverX (Ambit Biosciences) KINOMEscan
Experimental: as §1, §2, §3

EPHB1 = target: T16, EPHB1 (Homo sapiens, UniProt P54762); conditions: read-out: %Inhibition by 10 μM SPA70
T16 construct: purchased DiscoverX (Ambit Biosciences) KINOMEscan
Experimental: as §1, §2, §3

ERK2 = target: T17, ERK2 (Homo sapiens, UniProt P28482); conditions: read-out: %Inhibition by 10 μM SPA70
T17 construct: purchased DiscoverX (Ambit Biosciences) KINOMEscan
Experimental: as §1, §2, §3

ERK8 = target: T18, ERK8 (Homo sapiens, UniProt Q8TD08); conditions: read-out: %Inhibition by 10 μM SPA70
T18 construct: purchased DiscoverX (Ambit Biosciences) KINOMEscan
Experimental: as §1, §2, §3

FAK = target: T19, FAK (Homo sapiens, UniProt Q05397); conditions: read-out: %Inhibition by 10 μM SPA70
T19 construct: purchased DiscoverX (Ambit Biosciences) KINOMEscan
Experimental: as §1, §2, §3

GRK4 = target: T20, GRK4 (Homo sapiens, UniProt P32298); conditions: read-out: %Inhibition by 10 μM SPA70
T20 construct: purchased DiscoverX (Ambit Biosciences) KINOMEscan
Experimental: as §1, §2, §3

JNK3 = target: T21, JNK3 (Homo sapiens, UniProt P53779)
T21 construct: purchased DiscoverX (Ambit Biosciences) KINOMEscan
Experimental: as §1, §2, §3

LRRK2 = target: T22, LRRK2 (Homo sapiens, UniProt Q5S007); conditions: read-out: %Inhibition by 10 μM SPA70
T22 construct: purchased DiscoverX (Ambit Biosciences) KINOMEscan
Experimental: as §1, §2, §3

LTK = target: T23, LTK (Homo sapiens, UniProt P29376); conditions: read-out: %Inhibition by 10 μM SPA70
T23 construct: purchased DiscoverX (Ambit Biosciences) KINOMEscan
Experimental: as §1, §2, §3

LYN = target: T24, LYN (Homo sapiens, UniProt P07948); conditions: read-out: %Inhibition by 10 μM SPA70
T24 construct: purchased DiscoverX (Ambit Biosciences) KINOMEscan
Experimental: as §1, §2, §3

LZK = target: T25, LZK (Homo sapiens, UniProt O43283)
T25 construct: purchased DiscoverX (Ambit Biosciences) KINOMEscan
Experimental: as §1, §2, §3

MARK3 = target: T26, MARK3 (Homo sapiens, UniProt P27448); conditions: read-out: %Inhibition by 10 μM SPA70
T26 construct: purchased DiscoverX (Ambit Biosciences) KINOMEscan
Experimental: as §1, §2, §3

MARK4 = target: T27, MARK4 (Homo sapiens, UniProt Q96L34)
T27 construct: purchased DiscoverX (Ambit Biosciences) KINOMEscan
Experimental: as §1, §2, §3

MEK3 = target: T28, MEK3 (Homo sapiens, UniProt P46734); conditions: read-out: %Inhibition by 10 μM SPA70
T28 construct: purchased DiscoverX (Ambit Biosciences) KINOMEscan
Experimental: as §1, §2, §3

MELK = target: T29, MELK (Homo sapiens, UniProt Q14680); conditions: read-out: %Inhibition by 10 μM SPA70
T29 construct: purchased DiscoverX (Ambit Biosciences) KINOMEscan
T29 sequence (Q14680 whole entry): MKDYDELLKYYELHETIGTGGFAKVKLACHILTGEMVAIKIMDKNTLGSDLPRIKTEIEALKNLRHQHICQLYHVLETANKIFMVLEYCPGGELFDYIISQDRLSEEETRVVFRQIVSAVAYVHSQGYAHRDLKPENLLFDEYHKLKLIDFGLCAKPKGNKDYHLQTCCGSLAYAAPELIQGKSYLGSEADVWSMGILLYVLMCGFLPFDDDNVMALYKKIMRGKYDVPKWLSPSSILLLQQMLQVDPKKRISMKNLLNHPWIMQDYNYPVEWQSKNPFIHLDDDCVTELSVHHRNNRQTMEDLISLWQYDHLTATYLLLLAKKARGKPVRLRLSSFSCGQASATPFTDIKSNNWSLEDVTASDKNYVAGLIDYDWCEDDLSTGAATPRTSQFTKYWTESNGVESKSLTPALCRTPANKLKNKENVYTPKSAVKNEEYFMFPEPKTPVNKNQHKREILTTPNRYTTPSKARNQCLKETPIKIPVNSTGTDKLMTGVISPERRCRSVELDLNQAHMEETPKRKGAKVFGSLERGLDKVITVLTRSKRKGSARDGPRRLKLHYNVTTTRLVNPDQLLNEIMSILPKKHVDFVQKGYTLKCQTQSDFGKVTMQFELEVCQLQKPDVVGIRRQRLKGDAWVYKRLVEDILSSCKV
Experimental: as §1, §2, §3

MERTK = target: T30, MERTK (Homo sapiens, UniProt Q12866); conditions: read-out: %Inhibition by 10 μM SPA70
T30 construct: purchased DiscoverX (Ambit Biosciences) KINOMEscan
Experimental: as §1, §2, §3

OSR1 = target: T31, OSR1 (Homo sapiens, UniProt O95747); conditions: read-out: %Inhibition by 10 μM SPA70
T31 construct: purchased DiscoverX (Ambit Biosciences) KINOMEscan
Experimental: as §1, §2, §3

PDPK1 = target: T32, PDPK1 (Homo sapiens, UniProt O15530); conditions: read-out: %Inhibition by 10 μM SPA70
T32 construct: purchased DiscoverX (Ambit Biosciences) KINOMEscan
T32 sequence (O15530 whole entry): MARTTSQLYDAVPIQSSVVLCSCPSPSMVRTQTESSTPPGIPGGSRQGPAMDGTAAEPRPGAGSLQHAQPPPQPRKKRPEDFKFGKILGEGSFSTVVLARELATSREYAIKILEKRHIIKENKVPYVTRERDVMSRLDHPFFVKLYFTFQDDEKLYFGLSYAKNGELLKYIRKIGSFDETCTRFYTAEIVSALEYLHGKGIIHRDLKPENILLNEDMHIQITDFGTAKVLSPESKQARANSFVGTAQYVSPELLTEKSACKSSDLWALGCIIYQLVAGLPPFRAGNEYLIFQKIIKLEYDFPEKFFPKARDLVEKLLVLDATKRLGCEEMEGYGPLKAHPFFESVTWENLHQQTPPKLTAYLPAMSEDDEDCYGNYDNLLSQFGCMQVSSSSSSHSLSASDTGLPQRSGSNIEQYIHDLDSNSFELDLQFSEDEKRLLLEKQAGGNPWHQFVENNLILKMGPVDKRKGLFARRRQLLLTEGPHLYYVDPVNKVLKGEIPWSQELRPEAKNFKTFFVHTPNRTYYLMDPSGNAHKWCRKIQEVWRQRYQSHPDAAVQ
Experimental: as §1, §2, §3

PRKX = target: T33, PRKX (Homo sapiens, UniProt P51817); conditions: read-out: %Inhibition by 10 μM SPA70
T33 construct: purchased DiscoverX (Ambit Biosciences) KINOMEscan
Experimental: as §1, §2, §3

ROCK2 = target: T34, ROCK2 (Homo sapiens, UniProt O75116); conditions: read-out: %Inhibition by 10 μM SPA70
T34 construct: purchased DiscoverX (Ambit Biosciences) KINOMEscan
Experimental: as §1, §2, §3

[1] = target: T35, RSK2(Kin.Dom.1-N-terminal) (Homo sapiens, UniProt P51812); conditions: read-out: %Inhibition by 10 μM SPA70
T35 construct: RSK2(Kin.Dom.1-N-terminal); purchased DiscoverX (Ambit Biosciences) KINOMEscan
T35 sequence (P51812 1-397 limits assumed): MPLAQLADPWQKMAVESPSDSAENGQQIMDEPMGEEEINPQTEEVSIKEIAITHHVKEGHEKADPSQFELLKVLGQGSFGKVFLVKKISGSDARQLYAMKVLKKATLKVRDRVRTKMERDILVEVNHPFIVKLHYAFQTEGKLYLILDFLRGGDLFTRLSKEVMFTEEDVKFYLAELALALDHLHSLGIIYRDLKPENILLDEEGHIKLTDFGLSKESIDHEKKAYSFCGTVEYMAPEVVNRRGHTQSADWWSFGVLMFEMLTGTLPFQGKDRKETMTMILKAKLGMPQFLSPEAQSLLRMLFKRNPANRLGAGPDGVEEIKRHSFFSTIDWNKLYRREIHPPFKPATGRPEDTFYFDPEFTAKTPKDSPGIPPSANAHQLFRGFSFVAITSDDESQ
Experimental: as §1, §2, §3

S6K1 = target: T36, S6K1 (Homo sapiens, UniProt P23443); conditions: read-out: %Inhibition by 10 μM SPA70
T36 construct: purchased DiscoverX (Ambit Biosciences) KINOMEscan
Experimental: as §1, §2, §3

SYK = target: T37, SYK (Homo sapiens, UniProt P43405)
T37 construct: purchased DiscoverX (Ambit Biosciences) KINOMEscan
Experimental: as §1, §2, §3

TAOK3 = target: T38, TAOK3 (Homo sapiens, UniProt Q9H2K8); conditions: read-out: %Inhibition by 10 μM SPA70
T38 construct: purchased DiscoverX (Ambit Biosciences) KINOMEscan
Experimental: as §1, §2, §3

TESK1 = target: T39, TESK1 (Homo sapiens, UniProt Q15569); conditions: read-out: %Inhibition by 10 μM SPA70
T39 construct: purchased DiscoverX (Ambit Biosciences) KINOMEscan
T39 sequence (Q15569 whole entry): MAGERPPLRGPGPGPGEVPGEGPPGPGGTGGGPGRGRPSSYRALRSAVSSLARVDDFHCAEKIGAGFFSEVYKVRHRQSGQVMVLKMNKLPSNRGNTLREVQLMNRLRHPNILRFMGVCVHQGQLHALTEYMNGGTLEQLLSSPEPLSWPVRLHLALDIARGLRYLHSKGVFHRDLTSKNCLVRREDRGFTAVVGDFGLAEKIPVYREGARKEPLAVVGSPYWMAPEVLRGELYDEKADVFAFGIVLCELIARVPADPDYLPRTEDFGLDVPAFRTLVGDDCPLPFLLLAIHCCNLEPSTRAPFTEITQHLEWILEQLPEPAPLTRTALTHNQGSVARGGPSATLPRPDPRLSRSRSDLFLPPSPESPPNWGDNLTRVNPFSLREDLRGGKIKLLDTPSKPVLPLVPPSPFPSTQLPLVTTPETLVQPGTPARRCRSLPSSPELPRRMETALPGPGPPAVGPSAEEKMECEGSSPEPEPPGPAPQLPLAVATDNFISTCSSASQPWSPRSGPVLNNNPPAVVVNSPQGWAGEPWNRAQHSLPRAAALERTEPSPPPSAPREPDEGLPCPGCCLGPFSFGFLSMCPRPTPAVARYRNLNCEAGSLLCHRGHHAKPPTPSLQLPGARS
Experimental: as §1, §2, §3

TLK2 = target: T40, TLK2 (Homo sapiens, UniProt Q86UE8); conditions: read-out: %Inhibition by 10 μM SPA70
T40 construct: purchased DiscoverX (Ambit Biosciences) KINOMEscan
T40 sequence (Q86UE8 whole entry): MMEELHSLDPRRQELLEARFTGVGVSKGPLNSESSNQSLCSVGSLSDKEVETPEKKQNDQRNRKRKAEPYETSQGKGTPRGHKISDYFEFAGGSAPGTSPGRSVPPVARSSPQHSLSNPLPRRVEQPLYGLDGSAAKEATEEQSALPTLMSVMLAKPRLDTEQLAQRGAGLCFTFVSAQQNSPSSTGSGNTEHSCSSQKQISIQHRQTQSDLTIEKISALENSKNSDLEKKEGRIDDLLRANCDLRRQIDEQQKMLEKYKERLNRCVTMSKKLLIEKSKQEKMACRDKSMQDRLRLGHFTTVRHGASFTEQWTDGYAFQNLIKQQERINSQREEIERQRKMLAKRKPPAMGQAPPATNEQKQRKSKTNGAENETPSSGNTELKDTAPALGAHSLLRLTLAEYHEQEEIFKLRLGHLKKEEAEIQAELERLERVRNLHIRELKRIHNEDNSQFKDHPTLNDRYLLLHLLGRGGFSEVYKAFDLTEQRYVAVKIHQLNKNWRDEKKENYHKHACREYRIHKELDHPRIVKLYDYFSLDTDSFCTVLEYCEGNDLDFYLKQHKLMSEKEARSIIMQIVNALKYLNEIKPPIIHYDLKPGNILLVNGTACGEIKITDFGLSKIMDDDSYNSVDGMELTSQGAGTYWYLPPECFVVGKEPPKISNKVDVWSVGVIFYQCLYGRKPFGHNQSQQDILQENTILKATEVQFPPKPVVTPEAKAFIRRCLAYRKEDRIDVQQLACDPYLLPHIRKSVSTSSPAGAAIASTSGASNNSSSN
Experimental: as §1, §2, §3

ULK2 = target: T41, ULK2 (Homo sapiens, UniProt Q8IYT8); conditions: read-out: %Inhibition by 10 μM SPA70
T41 construct: purchased DiscoverX (Ambit Biosciences) KINOMEscan
Experimental: as §1, §2, §3

p38-alpha = target: T42, p38-alpha (Homo sapiens, UniProt Q16539)
T42 construct: purchased DiscoverX (Ambit Biosciences) KINOMEscan
Experimental: as §1, §2, §3

COc1ccc(OC)c(-n2nnc(S(=O)(=O)c3ccc(C(C)(C)C)cc3)c2C)c1 [SPA70]
inhibition at 10 µM (ABL1-nonphosphorylated): 0%
inhibition at 10 µM (ACVR2A): 0%
inhibition at 10 µM (AKT2): 0%
inhibition at 10 µM (AXL): 0%
inhibition at 10 µM (BMPR1A): 2%
inhibition at 10 µM (BMPR1B): 0%
inhibition at 10 µM (BRSK2): 0%
inhibition at 10 µM (CAMK1G): 25%
inhibition at 10 µM (CLK3): 0%
inhibition at 10 µM (CSNK1E): 0%
%Inhibition by 10 μM SPA70 (CSNK1G1): 0%
inhibition at 10 µM (CTK): 6%
inhibition at 10 µM (DMPK): 0%
inhibition at 10 µM (DRAK2): 5%
inhibition at 10 µM (EPHA3): 26%
inhibition at 10 µM (EPHB1): 0%
inhibition at 10 µM (ERK2): 0%
inhibition at 10 µM (ERK8): 0%
inhibition at 10 µM (FAK): 6%
inhibition at 10 µM (GRK4): 0%
%Inhibition by 10 μM SPA70 (JNK3): 9%
inhibition at 10 µM (LRRK2): 0%
inhibition at 10 µM (LTK): 6%
inhibition at 10 µM (LYN): 0%
%Inhibition by 10 μM SPA70 (LZK): 0%
inhibition at 10 µM (MARK3): 2%
%Inhibition by 10 μM SPA70 (MARK4): 0%
inhibition at 10 µM (MEK3): 0%
inhibition at 10 µM (MELK): 3%
inhibition at 10 µM (MERTK): 0%
inhibition at 10 µM (OSR1): 14%
inhibition at 10 µM (PDPK1): 0%
inhibition at 10 µM (PRKX): 8%
inhibition at 10 µM (ROCK2): 13%
inhibition at 10 µM [1]: 11%
inhibition at 10 µM (S6K1): 13%
%Inhibition by 10 μM SPA70 (SYK): 0%
inhibition at 10 µM (TAOK3): 2%
inhibition at 10 µM (TESK1): 0%
inhibition at 10 µM (TLK2): 0%
inhibition at 10 µM (ULK2): 0%
%Inhibition by 10 μM SPA70 (p38-alpha): 0%
